Data published in patent US11180771B2 (priority 2016, dated 2021).

Experiments:
[1] = test system: weeds (all species): Echinochloa species, Schoenoplectus mucronatus, Cypres difformis, Heteranthera limosa, Monochoria vaginalis; test: Drill-seeded herbicide treatment test (Table 6), percent weeds; assay type: in vivo; conditions: including combinations with Prowl and Clincher, lines with mutant ROXY allele
Method: Oxyfluorfen resistant rice lines containing mutant allele ROXY, including 17Y3000, 14G3, 14G4, and 15G4, and the oxyfluorfen susceptible parent M-206 without ROXY were tested by applying oxyfluorfen at different rates and times, and in combination with other herbicides in a drill-seeded production system and evaluated for percent weeds and yield as shown in Table 6. Preflush applications were made directly after drill-seeding just before the first irrigation of the basin and preflood applications occurred just before a permanent flood of basin at about 25 days after seeding. The design was a randomized complete block with 2 replication and treatments of oxyfluorfen (GoalTender®) and combinations of oxyfluorfen with the herbicides Prowl® and Clincher®. The active ingredient of Prowl® is pendimethalin (N-(1-ethylpropyl)-3,4-dimethyl-2,6-dinitrobenzenamine). Clincher® is an herbicide for selective postemergence grass weed control in rice with the active ingredient cyhalofop (2-[4-(4-cyano-2-fluorophenoxy) phenoxy] propanoic acid, butyl ester, (R)). The plot size was 6.4×20 ft. The percent weeds (all species) were visually determined at 50 days after seeding in the plots and the plots were harvested at maturity. […]

[2] = test system: weeds (all species): Echinochloa species, Schoenoplectus mucronatus, Cypres difformis, Heteranthera limosa, Monochoria vaginalis; test: Preflood oxyfluorfen rate test in water-seeded production system (Table 5), percent weeds; assay type: in vivo; conditions: treatments before flooding; mutant lines containing ROXY
Method: Oxyfluorfen resistant rice lines containing mutant allele ROXY, including 17Y3000, 14G3, 14G4, and 15G4, and the oxyfluorfen susceptible parent M-206 were tested at different rates of oxyfluorfen applied preflood in a water-seeded production system to assess seedling vigor, percent weeds, and yield as shown in Table 5. The design was a randomized complete block with 4 replication and 4 rates of oxyfluorfen (GoalTender®) herbicide. The plot size was 10×20 ft. The percent weeds (all species) were visually determined at 50 days after seeding in the plots and the plots were harvested at maturity. The weed species included a mixture of predominant weeds present including barnyard and late watergrass Echinochloa species, rice field bulrush Schoenoplectus mucronatus, small flower umbrella Cypres difformis, ducksalad Heteranthera limosa, and monochoria Monochoria vaginalis.

SMILES: CCOc1cc(Oc2ccc(C(F)(F)F)cc2Cl)ccc1[N+](=O)[O-] [Oxyfluorfen, oxyfluorfen]
- weed control [1]: high levels of weed control
- weed control [2]: high levels of weed control
